The target in experiment [1] is T1, human DHODH (Homo sapiens, UniProt Q02127).
T1 construct: purchased Proteros PR-0044
As to the kind of experiment: DHODH enzymatic assay (DCIP absorbance, end-point). The following applies: purified human DHODH, DCIP as final electron acceptor, end-point mode; read-out: hDHODH IC50. In kind it is biochemical. The method, boiled down:
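Purified human DHODH; end-point absorbance of DCIP reduction as terminal electron acceptor. Reaction started with substrate mix of 20 mM DHO, 5 mM CoQ6, 1 mM DCIP (substrate-solution concentrations) in […] pH 7.5, 150 mM NaCl, 0.5 mM EDTA, 0.1% Triton X-100.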

In experiment [2] the test system is MOLM-13 cells. As to the kind of experiment: MOLM-13 cellular assay (CellTiter-Glo cell viability). The class given is cell-based. The following applies: 72 hours exposure, cell viability by CellTiter-Glo. The essentials:
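Cells seeded at 5,000/well and exposed to graded compound concentrations for 72 h at 37° C, 5% CO2 immediately after seeding. Viability read by CellTiter-Glo luminescence.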
Background: Cellular ATP, detected with luciferase, serves as a proxy for viable cell number.

Among the data in patent US20220081422A1 (Janssen Biotech, Inc., priority 2019, published 2022) are IC50 values, retold here.

T1 sequence (Q02127 whole entry): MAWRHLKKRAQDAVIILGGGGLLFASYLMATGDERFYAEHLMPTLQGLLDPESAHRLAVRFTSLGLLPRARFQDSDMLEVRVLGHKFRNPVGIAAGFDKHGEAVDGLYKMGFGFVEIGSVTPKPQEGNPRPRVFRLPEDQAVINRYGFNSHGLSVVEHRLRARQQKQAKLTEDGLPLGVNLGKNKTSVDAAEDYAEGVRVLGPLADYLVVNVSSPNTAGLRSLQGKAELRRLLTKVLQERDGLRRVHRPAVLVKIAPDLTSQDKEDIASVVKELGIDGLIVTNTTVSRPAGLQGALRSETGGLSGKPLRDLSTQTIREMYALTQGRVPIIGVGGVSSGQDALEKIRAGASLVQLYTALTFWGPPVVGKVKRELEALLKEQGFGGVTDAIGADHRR

As for `CCn1c(CO)nn(-c2nc3c(cc2F)C(=O)N(c2c(F)cccc2Cl)CN3C2CCOCC2)c1=O` [Example 6, 3-(2-Chloro-6-fluorophenyl)-7-(4-ethyl-3-(hydroxymethyl)-5-oxo-4,5-dihydro-1H-1,2,4-triazol-1-yl)-6-fluoro-1-(tetrahydro-2H-pyran-4-yl)-2,3-dihydropyrido[2,3-d]pyrimidin-4(1H)-one], the IC50 (commonly the concentration at which inhibition is half-maximal) in experiment [1] worked out at 57 nM; in experiment [2] (Homo sapiens, MOLM-13, 72 h), 50 nM.
In the case of `CCn1c(CO)nn(-c2cc3c(cc2F)C(=O)N(c2cc(C)ccc2F)CN3C(C)C)c1=O` [Example 26, 7-(4-Ethyl-3-(hydroxymethyl)-5-oxo-4,5-dihydro-1H-1,2,4-triazol-1-yl)-6-fluoro-3-(2-fluoro-5-methylphenyl)-1-isopropyl-2,3-dihydroquinazolin-4(1H)-one], the half-maximal inhibitory concentration (IC50) was 20 nM in experiment [1] and 27.5 nM in experiment [2] (Homo sapiens, MOLM-13, 72 h).
Consider `CCn1c(CO)nn(-c2ccc3c(c2)C(c2ccccc2)CN(c2cccc(F)c2)C3=O)c1=O` (racemic) [Example 14, Racemic-6-(4-Ethyl-3-(hydroxymethyl)-5-oxo-4,5-dihydro-1H-1,2,4-triazol-1-yl)-2-(3-fluorophenyl)-4-phenyl-3,4-dihydroisoquinolin-1(2H)-one], for which the IC50 in experiment [1] amounted to 1030 nM; in experiment [2] (Homo sapiens, MOLM-13, 72 h), 758 nM.
Regarding `CC[C@@H](C)[C@H]1CN(c2c(F)cccc2Cl)C(=O)c2cc(F)c(-n3nc(CO)n(CC)c3=O)cc21` (relative stereo) [Example 72, (R*)-4-((R*)-sec-Butyl)-2-(2-chloro-6-fluorophenyl)-6-(4-ethyl-3-(hydroxymethyl)-5-oxo-4,5-dihydro-1H-1,2,4-triazol-1-yl)-7-fluoro-3,4-dihydroisoquinolin-1(2H)-one], the 50% inhibitory concentration (IC50) was determined as 5 nM in experiment [1] and 6.57 nM in experiment [2] (Homo sapiens, MOLM-13, 72 h).
For the molecule `C=C(C)[C@@H]1CN(c2c(C)cnc(OC)c2Cl)C(=O)c2cc(F)c(-n3nc(CO)n(CC)c3=O)cc21` (single isomer, unassigned; atropisomer 2) [Example 64, Atropisomer 2, (S*)-2-(3-Chloro-2-methoxy-5-methylpyridin-4-yl)-6-(4-ethyl-3-(hydroxymethyl)-5-oxo-4,5-dihydro-1H-1,2,4-triazol-1-yl)-7-fluoro-4-(prop-1-en-2-yl)-3,4-dihydroisoquinolin-1(2H)-one], the half-maximal inhibitory concentration (IC50) in experiment [1] is 60 nM; in experiment [2] it was 15.3 nM.
Consider `C=C(C)[C@H]1CN(c2c(C)cnc(OC)c2C)C(=O)c2cc(F)c(-n3nc(CO)n(CC)c3=O)cc21` (single isomer, unassigned; atropisomer 2) [Example 57, Atropisomer 2, (R*)-6-(4-Ethyl-3-(hydroxymethyl)-5-oxo-4,5-dihydro-1H-1,2,4-triazol-1-yl)-7-fluoro-2-(2-methoxy-3,5-dimethylpyridin-4-yl)-4-(prop-1-en-2-yl)-3,4-dihydroisoquinolin-1(2H)-one], for which the half-maximal inhibitory concentration (IC50) in experiment [1] was over 100 nM; in experiment [2], 29.7 nM.
Consider `CCn1c(CO)nn(-c2ccc3c(c2)C(C(C)C)CN(c2c(F)cccc2Cl)C3=O)c1=O` (racemic) [Example 13, Racemic-2-(2-Chloro-6-fluorophenyl)-6-(4-ethyl-3-(hydroxymethyl)-5-oxo-4,5-dihydro-1H-1,2,4-triazol-1-yl)-4-isopropyl-3,4-dihydroisoquinolin-1(2H)-one], for which the IC50 in experiment [1] amounted to 20 nM; in experiment [2] (Homo sapiens, MOLM-13, 72 h), 7.2 nM.
Turning to `CCn1c(CO)nn(-c2cc3c(cc2F)C(=O)N(c2c(F)cccc2Cl)C(C)N3C(C)C)c1=O` (stereo not drawn) [Example 2, 3-(2-Chloro-6-fluorophenyl)-7-(4-ethyl-3-(hydroxymethyl)-5-oxo-4,5-dihydro-1H-1,2,4-triazol-1-yl)-6-fluoro-1-isopropyl-2-methyl-2,3-dihydroquinazolin-4(1H)-one], the half-maximal inhibitory concentration (IC50) in experiment [1] came to 35 nM; in experiment [2] (Homo sapiens, MOLM-13, 72 h), 8.4 nM.
The corresponding values for `CCC[C@H](C)N1CN(c2c(F)cccc2Cl)C(=O)c2cc(F)c(-n3nc(CO)n(CC)c3=O)cc21` [Example 15, (S)-3-(2-Chloro-6-fluorophenyl)-7-(4-ethyl-3-(hydroxymethyl)-5-oxo-4,5-dihydro-1H-1,2,4-triazol-1-yl)-6-fluoro-1-(pentan-2-yl)-2,3-dihydroquinazolin-4(1H)-one] are 0.3 nM and under 1.69 nM.
For the molecule `C=C(C)[C@@H]1CN(c2c(C)cnc(OC)c2Cl)C(=O)c2cc(F)c(-n3nc(CO)n(CC)c3=O)cc21` (single isomer, unassigned; atropisomer 1) [Example 62, Atropisomer 1, (S*)-2-(3-Chloro-2-methoxy-5-methylpyridin-4-yl)-6-(4-ethyl-3-(hydroxymethyl)-5-oxo-4,5-dihydro-1H-1,2,4-triazol-1-yl)-7-fluoro-4-(prop-1-en-2-yl)-3,4-dihydroisoquinolin-1(2H)-one], the values for the half-maximal inhibitory concentration (IC50) in experiment [1] and in experiment [2] were 2 nM and 0.793 nM, respectively.
For `CCn1c(CO)nn(-c2nc3c(cc2F)C(=O)N(c2c(F)cccc2Cl)CN3C2CC2)c1=O` [Example 9, 3-(2-Chloro-6-fluorophenyl)-1-cyclopropyl-7-(4-ethyl-3-(hydroxymethyl)-5-oxo-4,5-dihydro-1H-1,2,4-triazol-1-yl)-6-fluoro-2,3-dihydropyrido[2,3-d]pyrimidin-4(1H)-one], the IC50 turned out to be 11 nM in experiment [1] and 1.7 nM in experiment [2] (Homo sapiens, MOLM-13, 72 h).
Take `CCn1c(CO)nn(-c2cc3c(cc2F)C(=O)N(c2c(C)ccnc2Cl)CN3C(C)C)c1=O` [Example 28, 3-(2-Chloro-4-methylpyridin-3-yl)-7-(4-ethyl-3-(hydroxymethyl)-5-oxo-4,5-dihydro-1H-1,2,4-triazol-1-yl)-6-fluoro-1-isopropyl-2,3-dihydroquinazolin-4(1H)-one]: the IC50 was 20 nM in experiment [1] and 36.1 nM in experiment [2] (Homo sapiens, MOLM-13, 72 h).
